Measured values reported in patent publication US7056938B1, “Method for scavenging radicals with urocanic acid, derivatives and analogues” (Academisch Ziekenhuis Bij De Univ., priority 1999, dated 2006).
Read-outs that look alike come from different tables or passages of the source. Marks after values point to notes of the source that are not given here.

Key:
rat = conditions: oral rat; cited from earlier work
[1] = deoxyribose (dR) degradation test, hydroxyl radical scavenging; format: biochemical; conditions: for SECOND ORDER RATE CONSTANT for reaction with hydroxyl radicals: mean of n slopes, sodium phosphate buffer pH 7.2
Procedure: Trans-UCA, cis-UCA, related imidazoles and non-imidazole compounds were tested with regard to their ability to compete with deoxyribose to scavenge hydroxyl radicals. On exposure to hydroxyl radicals deoxyribose is degraded into malondialdehyde, which reacts with thiobarbituric acid to form a pink chromogen. Powerful hydroxyl-radical scavengers will compete with deoxyribose, resulting in a reduced amount of malondialdehyde. Ten compounds, UCA, UCA analogues, alanine and uric acid (FIG. 1) were tested on their ability to scavenge hydroxyl radicals.
Method: the deoxyribose (dR) degradation test. The test was analogous to an earlier described method. Briefly, the reactions were performed in 5 mL screw cap glass tubes in a final volume of 1.0 mL sodium phosphate buffer (50 mM; pH 7.2), containing 3.0 mM 2 deoxy-D-ribose, 0.5 mM hydrogen peroxide and one of the test compounds at graded concentrations. The reaction was started by the addition of premixed disodium EDTA and ferrous iron solution (final concentrations 0.5 mM and 0.2 mM, respectively). The mixture was left for 15 minutes at room temperature. After addition of 1.0 mL 1% thiobarbituric acid in 50 mM NaOH and 0.75 mL 2.8% trichloroacetic acid, the tubes were heated for 20 minutes in a boiling water bath. The pink color was read at 532 nm and reciprocal absorption values were plotted against the concentration of the test compound after subtraction of appropriate blanks. A series of six duplicate determinations from test compound dilutions was employed to construct a graph slope for the calculation of a rate constant value. The mean, SD, number of rate constants and the percentage of inhibition of deoxyribose degradation, calculated for each test compound, are listed. Results. All second-order rate constants for reaction with hydroxyl radicals and, in addition, the percentage inhibition of deoxyribose degradation with equimolar concentrations (3 mM) of scavenger are summarized in Table 1. Trans-UCA and cis-UCA are substantially more powerful in scavenging hydroxyl radicals (8.0 and 7.1×10^3 M^−1,s^−1, respectively), than the other 4-(5-)-substituted imidazoles, including L-histidine (2.6×10^2 M^−1,s^−1). L-histidine, the precursor of UCA, was included as a known moderate scavenger with structural similarities to UCA. L-alanine was used as a known poor scavenger. Trans-FAA was tested as a non-imidazole acrylic acid derivative, having a furan ring instead.
FIG. 2. A determination of the second order rate constants of trans-UCA and cis-UCA with hydroxyl radicals. The rate constant was derived from the slope of the line (k=slope×kdR×[dR]×A0), where A0 is the absorbance, measured in the absence of hydroxyl radical scavenger. KdR was taken as 3.1×10^9 M^−1,s^−1, derived from pulse radiolysis studies, and [dR]=3 mM. […] The other scavengers were studied similarly.

[2] = test system: ear swelling response from BALB/c mice; assay: inhibition of contact hypersensitivity, ear swelling response; conditions: for inhibition of CHS (in words): as ammonium salts
[3] = Fenton oxidation of UCA (Fe2+ / hydrogen peroxide, HPLC); format: physicochemical
Procedure: Trans-UCA and cis-UCA were separated from each other and from several UCA oxidation products on a 4.6×250 mm Alltima C18 and Luna C18 reversed-phase column (Alitech, Deerfield, Ill. and Phenomenex, Torrence, Calif., resp.) with a flow of 0.8 mL/min, delivered by P-3500 HPLC-pumps (Pharmacia, Uppsala, Sweden). Samples of 20 to 200 μL were injected by a Promis II autosampler (Spark Holland, Emmen, The Netherlands) and chromatographic data were recorded on an SP 4270 integrator (Spectra Physics, San Jose, Calif.). Peak area data from samples were only processed under identical HPLC circumstances. A UV-detector (Applied Biosystems, model 759A, Foster City, Calif.) was set for 226 nm detection. Isocratic elution was performed with 10 mM ammonium formate buffer, containing 0.2–0.8 mM tetrabutylammonium(TBA)formate and 1% acetonitrile (pH 7.2). Collected fractions were acidified with formic acid up to a final concentration of 100 mM and passed through C18 could phase extraction columns (J T Baker, Deventer, The Netherlands) in order to remove TBA.
[…] In addition, two hydroxyl-radical-generating systems with copper ions (Cu^2+) were used, consisting of 50 μM Cu^2+ with either 500 μM hydrogen peroxide or 5 mM ascorbic acid.
In the next series of experiments we studied the Fenton oxidation of UCA, representing another natural oxidation process. Trans-UCA and cis-UCA isomers were Fenton oxidized by ferorus ions (Fe^2+) and hydrogen peroxide at physiological concentrations. The initial hydrogen peroxide concentration was 500 μM and the ferrous ion concentration was varied from 0 to 500 μM. In all Fenton oxidation reactions the degree of UCA-isomer breakdown was calculated from their reduced peak areas. The oxidation reaction must have been completed within 2 minutes for all reaction conditions, because no further breakdown was observed after prolonged incubation.
When the Fenton reaction was performed in water instead of phosphate buffer, the oxidative breakdown of trans-UCA was enhanced irrespective of the UCA concentration. The turbidity seen in reactions performed in phoshate buffer (10 mM) with high Fe^2+ concentration (>100 μM) was probably due to the formation of insoluble, iron phosphate, thereby reducing the free availability of Fe^2+. Table 3 summarizes the difference between water and phosphate medium for trans-UCA at an initial concentration of 40 μM with respect to its breakdown and the formation of Fenton-oxidation products. Similarly to the photo-oxidation experiments, the peak areas of the 8 major oxidation products were summed. […] A close resemblance was observed between the chromatographic patterns of UCA Fenton oxidation products (not shown) and those of UCA photo-oxidation products. Three of them has been identified (vide infra).
In another series of experiments we studied the Fenton oxidation of UCA, representing another natural oxidation process. The initial hydrogen peroxide concentration was 500 μM in all experiments and the ferrous ion concentration was varied from 0 to 400 μM. Four sets of conditions were compared: […] in phosphate buffer pH 7.2, 2. Fe^2+ in phosphate buffer plus EDTA, 3. Fe^2− without buffer with a initial pH of 5.5–5.3 and 4. Cu^2+ in phosphate buffer plus ascorbate. The degree of breakdown was similar for both UCA isomers.

[4] = [SCAVENGER] = [DEOXYRIBOSE] = 3 Mm

SMILES | hydroxyl radical scavenging ability (in words) [1] | SECOND ORDER RATE CONSTANT for reaction with hydroxyl radicals [1] | INHIBITION of DEOXYRIBOSE DEGRADATION [1, 4] | other results
Cc1ncc[nH]1 [2-Methylimidazole, 2-methylimidazole] | stronger hydroxyl radical scavengers | 1.17e+10 M⁻¹ s⁻¹ |  | LD50 (rat): 1500 mg/kg; INHIBITION of DEOXYRIBOSE DEGRADATION ([1]; 15 min, 3 mM, pH 7.2): 76%
O=C(O)CCc1c[nH]cn1 [Dihydrourocanic acid, 3-(imidazol-4-yl)-propionic acid] | moderate scavenging ability | 3.7e+09 M⁻¹ s⁻¹ |  | INHIBITION of DEOXYRIBOSE DEGRADATION ([1]; 15 min, 3 mM, pH 7.2): 34%
O=CC(=O)O [Glyoxylic acid, glyoxylic acid] |  |  |  | inhibition of CHS (in words) [2]: did not exhibit significant inhibition
O=Cc1c[nH]cn1 [ImCHO, imidazole-4-carboxaldehyde] |  |  |  | yield of ImCOOH from ImCHO as starting material ([3]; after Fenton- or photooxidation): ~100%
O=C(O)Cc1c[nH]cn1 [Imidazole-4acetic acid, imidazole-4-acetic acid] | moderate scavenging ability | 2.2e+09 M⁻¹ s⁻¹ | 30% | 
C[C@H](N)C(=O)O [L-Alanine, L-alanine] |  | 1e+08 M⁻¹ s⁻¹ | 2% | 
N[C@@H](Cc1c[nH]cn1)C(=O)O [L-Histidine, L-histidine] |  | 2.6^(c) × 10^9 M^−1 · s^−1 | 34% | rate constant for scavenging hydroxyl radicals [1]: 2.6e+09 M⁻¹ s⁻¹
O=c1[nH]c(=O)c2[nH]c(=O)[nH]c2[nH]1 [Uric acid, uric acid] |  | 2.78e+10 M⁻¹ s⁻¹ |  | INHIBITION of DEOXYRIBOSE DEGRADATION ([1]; 15 min, 3 mM, pH 7.2): 91%
O=C(O)/C=C\c1c[nH]cn1 [cis-Urocanic acid] |  | 7.1e+09 M⁻¹ s⁻¹ | 64% | broken down by the unbuffered Fenton oxidation system ([3]; initial UCA concentration 250 μM, unbuffered): 75%; ear swelling ([2]; 1 g/l, maximum normalized to 100%): 31%; second order rate constant in the particular set of FIG. 2 ([1]; single set of FIG. 2, kdR 3.1×10^9, [dR]=3 mM): 7.33 ×10^9 M^−1,s^−1
c1c[nH]cn1 [imidazole] | stronger scavengers than the UCA isomers |  |  | 
O=C(O)C(=O)O [oxalic acid] |  |  |  | inhibition of CHS (in words) [2]: did not exhibit significant inhibition
O=C(O)/C=C/c1ccco1 [trans-2-Furylacylic acid, trans-2-furylacrylic acid] | very poor scavenging ability | <1e+08 M⁻¹ s⁻¹ |  | INHIBITION of DEOXYRIBOSE DEGRADATION [1]: <2%
